# US20250051458A1, “Methods for Treating Neurodegeneration Targeting IGF1/IGF1R” (The Schepens Eye Research Institute, Inc., priority 2021, published 2025)
# Entries after “also recorded” stand apart in the source; their conditions may differ.
# Experiments:
# [1] = target: IGF-1R on mouse microglia (primary retinal and brain microglia, BV2 cell line) (mouse) (UniProt Q60751); experiment: cell-based or functional assay
# [2] = tested on: ischemic optic neuropathy in mice; experiment: Mouse model of ischemic optic neuropathy, intravitreal injection; format: in vivo; conditions: intravitreal injections at days 1, 8 and 17 post injury; 4 weeks after induction
# Excerpt: FIG. 9. Rescue of RGC function and vision by intravitreal injection of IGF1R agonist in a mouse model of ischemic optic neuropathy. Quantifications of electroretinogram positive scotopic threshold response (pSTR) amplitudes, visual acuity and contrast sensitivity before (Baseline) and at 4 weeks (4 wks) after induction of ischemic optic neuropathy in mice received intravitreal injections of control or RG5 IGF1R agonist at day 1, 8 and 17 post injury. Error bar=SEM. *P<0.05 by one way ANOVA.
# The adult mice were dark adapted in a dark adaptation chamber overnight before conducting ERG. […] The pSTR was measured from the baseline to the peak of the positive deflection. […]
# The mouse was placed on a small platform in the middle of the optomotor chamber. […] The contrast at a given spatial frequency is calculated using the formula (Lmax−Lmin)/(Lmax+Lmin) where Lmax is the brightness (in cd/m^2) of the white stripe, and Lmin is the brightness of the black stripe (in cd/m^2). Contrast level, stripe width, grating speed, and direction of stripe movement (clockwise vs. counterclockwise) were measured. According to the tracking of head movements on the mouse to the moving stripes, the visual acuity and contrast sensitivity can be measured. […] By changing the stripe width and the contrast, visual acuity and contrast sensitivity of mice can be assessed. […]
# [3] = tested on: human microglial cell line; experiment: qPCR of IL-6 induction in LPS+ATP-stimulated human microglial cell line (IGF1R agonist / IGF1 antibody screen); format: cell-based; conditions: treatment 6 hours after LPS+ATP; compared with various IGF1 antibodies
# Method: FIG. 8. Screening for anti-human IGF1 agonist antibody with a counter-inflammatory effect on microglial activation. Result of qPCR measuring levels of pro-inflammatory cytokine IL-6 induction in human microglial cell line that were stimulated by LPS and ATP (LPS+ATP) followed by treatment with IGF1R agonist Rg5 or various IGF1 antibodies 6 hours after LTP+ATP administration. […] Error bar=SEM. *P<0.05 by one way ANOVA.
# qPCR was used to measure levels of pro-inflammatory cytokine IL-6 induction in a human microglial cell line stimulated by LPS and ATP (LPS+ATP) followed by treatment with IGF1R agonist Rg5 or various IGF1 antibodies 6 hours after LTP+ATP administration.
# UniProt Q60751, sequence (Q60751 31-1373): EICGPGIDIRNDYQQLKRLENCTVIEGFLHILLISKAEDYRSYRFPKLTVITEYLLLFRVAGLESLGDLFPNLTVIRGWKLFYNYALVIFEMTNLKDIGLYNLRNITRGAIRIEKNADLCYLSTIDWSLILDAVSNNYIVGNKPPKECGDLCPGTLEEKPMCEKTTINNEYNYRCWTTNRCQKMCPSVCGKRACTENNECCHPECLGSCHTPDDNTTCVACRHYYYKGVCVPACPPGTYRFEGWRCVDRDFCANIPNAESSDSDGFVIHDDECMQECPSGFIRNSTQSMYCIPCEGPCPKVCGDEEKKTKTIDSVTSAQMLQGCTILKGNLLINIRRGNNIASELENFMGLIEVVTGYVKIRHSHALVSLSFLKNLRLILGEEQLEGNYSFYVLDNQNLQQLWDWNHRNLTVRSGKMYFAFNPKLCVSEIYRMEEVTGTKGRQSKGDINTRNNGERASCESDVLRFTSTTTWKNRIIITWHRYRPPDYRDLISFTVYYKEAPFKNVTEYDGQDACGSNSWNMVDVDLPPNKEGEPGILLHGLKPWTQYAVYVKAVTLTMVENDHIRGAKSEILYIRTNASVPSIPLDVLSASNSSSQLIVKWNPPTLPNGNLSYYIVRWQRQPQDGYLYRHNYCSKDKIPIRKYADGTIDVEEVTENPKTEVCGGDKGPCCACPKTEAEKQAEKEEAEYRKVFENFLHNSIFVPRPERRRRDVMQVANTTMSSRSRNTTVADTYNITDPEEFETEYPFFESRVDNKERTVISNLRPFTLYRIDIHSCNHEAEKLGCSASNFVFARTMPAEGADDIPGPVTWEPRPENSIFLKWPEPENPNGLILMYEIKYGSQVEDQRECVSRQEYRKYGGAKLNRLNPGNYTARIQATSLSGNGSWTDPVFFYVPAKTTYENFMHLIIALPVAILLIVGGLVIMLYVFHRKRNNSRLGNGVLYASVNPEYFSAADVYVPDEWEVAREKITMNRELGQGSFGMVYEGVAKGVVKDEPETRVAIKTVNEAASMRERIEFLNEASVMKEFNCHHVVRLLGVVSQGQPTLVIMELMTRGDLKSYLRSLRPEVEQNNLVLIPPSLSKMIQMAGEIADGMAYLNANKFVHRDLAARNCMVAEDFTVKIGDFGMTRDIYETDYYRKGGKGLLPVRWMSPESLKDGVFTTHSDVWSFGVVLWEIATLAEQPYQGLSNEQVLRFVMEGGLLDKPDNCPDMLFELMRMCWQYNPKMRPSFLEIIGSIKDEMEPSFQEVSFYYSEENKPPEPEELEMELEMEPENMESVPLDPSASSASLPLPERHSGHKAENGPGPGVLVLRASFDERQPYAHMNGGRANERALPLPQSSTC
Compound,"PI3K phosphorylation (Western blot, BV2 microglia) [1] [fold]","RGC function (pSTR amplitudes) and vision (visual acuity, contrast sensitivity) [2]",Anti-inflammatory effect on IL-6 induction (qPCR) [3]
"insulin-like growth factor binding protein like protein 1 (IGFBPL1), recombinant (R&D system, 4130-BL) (from UniProt Q80W15 18-270) (ligand)",8,–,–
"CC(C)=CC/C=C(\C)[C@H]1CC[C@]2(C)[C@@H]1[C@H](O)C[C@@H]1[C@@]3(C)CC[C@H](O[C@@H]4O[C@H](CO)[C@@H](O)[C@H](O)[C@H]4O[C@@H]4O[C@H](CO)[C@@H](O)[C@H](O)[C@H]4O)C(C)(C)[C@@H]3CC[C@]12C [Rg5, ginsenoside RG5]",–,protects RGC function and vision against ischemic optic neuropathy-induced functional loss,largest anti-inflammatory effect; also recorded: greatest anti-inflammatory effect
